We go through nine molecules from patent publication US12679836B2, “4H-pyrrolo[3,2-c]pyridin-4-one compounds” (Bayer Aktiengesellschaft, priority 2019, dated 2026).

Assay [1] deals with T1, EGFR with insertion of SVD between D770 and N771 (EGFR ins SVD) (Homo sapiens, UniProt P00533, DUP768-770).
T1 construct: made in house; host or cells: Sf9 insect cells (baculovirus)
The assay is described as follows: Exon20-Mutant-EGFR(D770_N771insSVD) kinase assay (TR-FRET). In kind it is biochemical. The conditions noted are these: 2 mM ATP, several values per example where printed. (Time-resolved FRET reads energy transfer from a long-lived donor to a nearby acceptor.)

A further assay has as its target T2, Bub1 (Homo sapiens, UniProt O43683).
T2 construct: catalytic domain of human Bub1 (amino acids 704-1085); His6 (N); made in house; host or cells: Hi5 insect cells
The assay is described as follows: Bub1 TR-FRET high ATP kinase assay. In kind it is biochemical. The conditions noted are these: Bub1 high ATP (2 mM) IC50 [mol/l], 2 mM ATP. In a few lines:
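Recombinant His6-tagged human Bub1 catalytic domain (aa 704-1085), from Hi5 insect cells, phosphorylating a biotinylated peptide substrate at high ATP concentration. TR-FRET read-out.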

A further assay has as its target Ba/F3-EGFR-insSVD cells (Homo sapiens, UniProt P00533, DUP768-770, cells depend on it). Nature of the assay: Ba/F3 cell survival assay (Cell Titer-Glo), EGFR-insSVD. The conditions noted are these: without IL-3, with 10 ng/mL EGF, 48 h; read-out: BA/F3 (insSVD) IC50. In kind it is cell-based. The gist of the method:
(§1)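 Ba/F3 cells stably expressing WT EGFR or EGFR-insSVD from retroviral transduction were grown without IL-3 on 10 ng/mL EGF. Cells were plated at 4000 cells/well, treated with compound for 48 h at 37° C, and viability was read by CellTiter-Glo luminescence.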

A further assay deals with Ba/F3-EGFR-WT cells (Homo sapiens, UniProt P00533). The assay is described as follows: Ba/F3 cell survival assay (Cell Titer-Glo), WT EGFR. In kind it is cell-based. The conditions noted are these: without IL-3, with 10 ng/mL EGF, 48 h; read-out: BA/F3 (wild type) IC50. In a few lines: as §1
In assay [2] the target is Ba/F3-EGFR-E746_A750del cells (Homo sapiens, UniProt P00533, DEL746-750, cells depend on it). The assay is described as follows: Ba/F3 cell survival assay, EGFR E746_A750del. The conditions noted are these: without IL-3, without EGF, 48 h; read-out: BA/F3 (EGFR E746_A750del) IC50. Format: cell-based. As to the method:
(§2) 293T cells from ATCC were transfected with pBABEpuro expression constructs for mutant EGFR (V769_D770insASV, D770_N771insNPG, N771_P772insH, H773_V774insNPH, E746_A750del, L858R, D770_N771insSVD C797S, E746_A750del C797S, L858R C797S, L861Q) or mutant ERBB2 (A775_G776insYVMA) and pCL-Eco packaging vector using Fugene-6 transfection reagent from Promega. Plates were incubated at 37° C. for 48 h. Retrovirus was harvested by filtering the media supernatant through a 0.45 μm filter.
(§3) Ba/F3 cells purchased from DSMZ were grown in RPMI+10% FBS+10 ng/mL IL-3 and infected with filtered retroviral supernatant at a 1:2 dilution. Polybrene was added to a concentration of 8 μg/mL, plates were spun for 90 min, and incubated overnight at 37° C. 2 μg/mL puromycin was added to the infected cells 24 h after infection and cells were continually grown in the presence of puromycin and 10 ng/mL IL-3. Following stably expressing Ba/F3 cell lines were generated: Ba/F3-EGFR-V769_D770insASV, Ba/F3-EGFR-D770_N771insNPG, Ba/F3-EGFR-N771_P772insH, Ba/F3-EGFR-H773_V774insNPH, Ba/F3-EGFR-E746_A750del, Ba/F3-EGFR-L858R, Ba/F3-EGFR-D770_N771 insSVD C797S, Ba/F3-EGFR-E746_A750del C797S, Ba/F3-EGFR-L858R C797S, Ba/F3-EGFR L861Q and Ba/F3-ERBB2-A775_G776insYVMA (Ba/F3-vector-control).
(§4) For cell survival assays, Ba/F3 cells were grown to a density of 1-2 million cells per mL, spun down and resuspended in media without IL-3, and replated at a concentration 200,000-500,000 cells per mL. The cells ectopically expressing WT EGFR plated with 10 ng/mL Millipore Culture grade EGF and Ba/F3 cells containing mutant EGFR or Mutant ERBB2 were cultivated without EGF. The cells ectopically expressing pBABEpuro empty vector were plated with 10 ng/mL IL-3.
(§5) 2 days later, cells were plated in 50 μL in a 384 well plate at a concentration of 4000 cells per well for cells assayed in the absence of IL-3 and 2000 cells per well for cells assayed in the presence of IL-3. 100 nL of compound was added to each well using a 100 nL pin head, and plates were incubated at 37° C. for 48 h.
(§6) Cell viability was measured by adding 20 μL of Cell Titer-Glo Luminescent Cell Viability Reagent diluted 1:3 in PBS. Plates were sealed with Perkin Elmer Top-Seal, inverted several times to mix, and immediately centrifuged at 1000 rpm for 2 min. Plates were incubated in low light conditions for 8-10 min and luminescence was measured.

In another assay the target is Ba/F3-EGFR-L858R cells (Homo sapiens, UniProt P00533, L858R, cells depend on it). Nature of the assay: Ba/F3 cell survival assay, EGFR L858R. Conditions: without IL-3, without EGF, 48 h; read-out: BA/F3 (EGFR L858R) IC50. In kind it is cell-based. As to the method:
as §2, §3, §4, §5, §6

For the next assay, the target named is Ba/F3-EGFR L861Q cells (Homo sapiens, UniProt P00533, L861Q, cells depend on it). The assay is described as follows: Ba/F3 cell survival assay, EGFR L861Q. Format: cell-based. The conditions noted are these: without IL-3, without EGF, 48 h; read-out: BA/F3 (EGFR L861Q) IC50. As to the method:
as §2, §3, §4, §5, §6

Molecules are shown by their SMILES.

T1 sequence (P00533 with tags, fused parts or gaps DUP768-770): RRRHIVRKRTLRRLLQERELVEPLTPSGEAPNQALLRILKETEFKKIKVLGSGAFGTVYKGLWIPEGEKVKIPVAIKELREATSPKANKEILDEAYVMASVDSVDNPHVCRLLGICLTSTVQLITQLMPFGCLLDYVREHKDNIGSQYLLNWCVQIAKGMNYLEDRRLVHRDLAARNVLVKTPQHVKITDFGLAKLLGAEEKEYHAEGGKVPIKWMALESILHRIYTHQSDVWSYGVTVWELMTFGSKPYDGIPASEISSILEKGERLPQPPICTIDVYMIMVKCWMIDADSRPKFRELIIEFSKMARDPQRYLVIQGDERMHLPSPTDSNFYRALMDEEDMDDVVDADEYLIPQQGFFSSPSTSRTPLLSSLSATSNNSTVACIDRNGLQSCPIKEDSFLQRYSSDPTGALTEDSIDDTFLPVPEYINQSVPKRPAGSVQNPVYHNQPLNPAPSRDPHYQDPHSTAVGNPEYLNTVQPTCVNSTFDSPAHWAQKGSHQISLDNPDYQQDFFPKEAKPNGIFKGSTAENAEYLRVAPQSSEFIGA
Sequence of Ba/F3-EGFR-insSVD cells (P00533 with tags, fused parts or gaps DUP768-770): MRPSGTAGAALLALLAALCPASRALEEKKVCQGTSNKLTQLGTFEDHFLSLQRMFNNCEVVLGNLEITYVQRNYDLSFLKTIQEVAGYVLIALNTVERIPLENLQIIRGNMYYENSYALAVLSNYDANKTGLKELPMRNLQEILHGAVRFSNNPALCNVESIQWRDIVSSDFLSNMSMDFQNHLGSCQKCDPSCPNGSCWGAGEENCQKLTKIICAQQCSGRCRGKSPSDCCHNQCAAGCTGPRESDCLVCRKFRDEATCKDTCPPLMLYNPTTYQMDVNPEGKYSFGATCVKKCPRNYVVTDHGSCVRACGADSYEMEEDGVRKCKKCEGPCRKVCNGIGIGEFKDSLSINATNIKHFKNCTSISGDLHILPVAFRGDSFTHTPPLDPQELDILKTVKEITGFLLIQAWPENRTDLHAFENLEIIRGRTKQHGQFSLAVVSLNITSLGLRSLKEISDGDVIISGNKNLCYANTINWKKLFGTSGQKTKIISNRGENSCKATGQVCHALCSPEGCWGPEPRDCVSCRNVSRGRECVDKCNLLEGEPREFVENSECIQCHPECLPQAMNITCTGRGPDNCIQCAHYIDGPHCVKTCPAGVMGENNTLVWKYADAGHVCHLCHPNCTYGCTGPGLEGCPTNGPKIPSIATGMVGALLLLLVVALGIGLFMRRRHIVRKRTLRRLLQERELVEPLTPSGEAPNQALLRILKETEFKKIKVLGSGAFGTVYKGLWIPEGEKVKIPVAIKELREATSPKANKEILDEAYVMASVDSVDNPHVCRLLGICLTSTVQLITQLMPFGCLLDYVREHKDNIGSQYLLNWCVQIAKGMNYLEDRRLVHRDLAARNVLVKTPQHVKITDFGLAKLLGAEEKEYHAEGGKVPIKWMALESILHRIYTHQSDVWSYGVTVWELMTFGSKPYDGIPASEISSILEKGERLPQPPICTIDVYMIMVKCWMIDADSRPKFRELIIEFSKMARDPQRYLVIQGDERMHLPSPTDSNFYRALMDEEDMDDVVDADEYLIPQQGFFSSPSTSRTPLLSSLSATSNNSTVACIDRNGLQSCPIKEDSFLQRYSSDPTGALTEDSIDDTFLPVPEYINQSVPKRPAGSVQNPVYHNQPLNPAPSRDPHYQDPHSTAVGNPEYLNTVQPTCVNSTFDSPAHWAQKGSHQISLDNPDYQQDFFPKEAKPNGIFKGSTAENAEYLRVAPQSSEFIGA
Sequence of Ba/F3-EGFR-WT cells (P00533 whole entry, stated change not applied): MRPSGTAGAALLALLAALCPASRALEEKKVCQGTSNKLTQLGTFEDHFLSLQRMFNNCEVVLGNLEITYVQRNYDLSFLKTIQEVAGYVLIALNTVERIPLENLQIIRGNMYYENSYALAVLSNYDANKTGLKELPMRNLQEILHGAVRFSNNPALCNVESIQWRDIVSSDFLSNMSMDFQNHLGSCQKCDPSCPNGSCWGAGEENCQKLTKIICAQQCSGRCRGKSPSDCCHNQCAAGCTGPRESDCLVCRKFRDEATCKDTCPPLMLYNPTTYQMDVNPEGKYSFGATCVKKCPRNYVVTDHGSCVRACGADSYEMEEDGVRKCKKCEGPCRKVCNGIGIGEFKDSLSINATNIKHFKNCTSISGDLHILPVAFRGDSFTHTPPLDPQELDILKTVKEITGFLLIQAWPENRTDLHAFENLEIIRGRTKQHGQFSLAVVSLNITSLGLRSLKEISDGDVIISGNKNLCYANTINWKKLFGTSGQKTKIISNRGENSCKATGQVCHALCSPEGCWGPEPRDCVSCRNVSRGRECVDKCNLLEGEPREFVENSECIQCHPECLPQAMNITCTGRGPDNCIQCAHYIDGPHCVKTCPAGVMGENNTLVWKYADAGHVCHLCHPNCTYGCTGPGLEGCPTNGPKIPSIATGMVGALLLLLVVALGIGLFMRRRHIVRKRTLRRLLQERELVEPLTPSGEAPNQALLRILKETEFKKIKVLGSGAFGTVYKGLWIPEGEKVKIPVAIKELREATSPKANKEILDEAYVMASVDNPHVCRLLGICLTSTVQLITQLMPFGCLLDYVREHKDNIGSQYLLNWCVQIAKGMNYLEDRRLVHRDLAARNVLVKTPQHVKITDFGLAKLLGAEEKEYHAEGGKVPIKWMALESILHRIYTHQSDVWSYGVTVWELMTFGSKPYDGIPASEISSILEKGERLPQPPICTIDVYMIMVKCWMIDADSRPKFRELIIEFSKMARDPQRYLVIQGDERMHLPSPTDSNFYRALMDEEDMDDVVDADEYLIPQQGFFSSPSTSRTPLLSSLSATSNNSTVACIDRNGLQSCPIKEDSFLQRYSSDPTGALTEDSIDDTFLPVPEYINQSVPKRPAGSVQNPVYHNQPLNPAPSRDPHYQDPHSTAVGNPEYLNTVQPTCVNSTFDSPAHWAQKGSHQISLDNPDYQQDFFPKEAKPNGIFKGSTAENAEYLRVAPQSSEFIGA
T2 sequence (O43683 704-1085): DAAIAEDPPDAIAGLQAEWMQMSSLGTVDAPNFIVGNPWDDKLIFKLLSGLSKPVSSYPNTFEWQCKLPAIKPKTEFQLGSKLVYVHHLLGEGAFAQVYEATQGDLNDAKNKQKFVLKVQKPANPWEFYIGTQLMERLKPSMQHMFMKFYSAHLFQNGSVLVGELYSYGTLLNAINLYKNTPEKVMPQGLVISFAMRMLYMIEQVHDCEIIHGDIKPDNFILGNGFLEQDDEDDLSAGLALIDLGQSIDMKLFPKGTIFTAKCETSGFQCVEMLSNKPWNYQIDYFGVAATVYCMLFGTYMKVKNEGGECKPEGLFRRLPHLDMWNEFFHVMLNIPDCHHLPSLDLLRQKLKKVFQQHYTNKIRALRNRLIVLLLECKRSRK
Sequence of Ba/F3-EGFR L861Q cells (P00533 whole entry L861Q): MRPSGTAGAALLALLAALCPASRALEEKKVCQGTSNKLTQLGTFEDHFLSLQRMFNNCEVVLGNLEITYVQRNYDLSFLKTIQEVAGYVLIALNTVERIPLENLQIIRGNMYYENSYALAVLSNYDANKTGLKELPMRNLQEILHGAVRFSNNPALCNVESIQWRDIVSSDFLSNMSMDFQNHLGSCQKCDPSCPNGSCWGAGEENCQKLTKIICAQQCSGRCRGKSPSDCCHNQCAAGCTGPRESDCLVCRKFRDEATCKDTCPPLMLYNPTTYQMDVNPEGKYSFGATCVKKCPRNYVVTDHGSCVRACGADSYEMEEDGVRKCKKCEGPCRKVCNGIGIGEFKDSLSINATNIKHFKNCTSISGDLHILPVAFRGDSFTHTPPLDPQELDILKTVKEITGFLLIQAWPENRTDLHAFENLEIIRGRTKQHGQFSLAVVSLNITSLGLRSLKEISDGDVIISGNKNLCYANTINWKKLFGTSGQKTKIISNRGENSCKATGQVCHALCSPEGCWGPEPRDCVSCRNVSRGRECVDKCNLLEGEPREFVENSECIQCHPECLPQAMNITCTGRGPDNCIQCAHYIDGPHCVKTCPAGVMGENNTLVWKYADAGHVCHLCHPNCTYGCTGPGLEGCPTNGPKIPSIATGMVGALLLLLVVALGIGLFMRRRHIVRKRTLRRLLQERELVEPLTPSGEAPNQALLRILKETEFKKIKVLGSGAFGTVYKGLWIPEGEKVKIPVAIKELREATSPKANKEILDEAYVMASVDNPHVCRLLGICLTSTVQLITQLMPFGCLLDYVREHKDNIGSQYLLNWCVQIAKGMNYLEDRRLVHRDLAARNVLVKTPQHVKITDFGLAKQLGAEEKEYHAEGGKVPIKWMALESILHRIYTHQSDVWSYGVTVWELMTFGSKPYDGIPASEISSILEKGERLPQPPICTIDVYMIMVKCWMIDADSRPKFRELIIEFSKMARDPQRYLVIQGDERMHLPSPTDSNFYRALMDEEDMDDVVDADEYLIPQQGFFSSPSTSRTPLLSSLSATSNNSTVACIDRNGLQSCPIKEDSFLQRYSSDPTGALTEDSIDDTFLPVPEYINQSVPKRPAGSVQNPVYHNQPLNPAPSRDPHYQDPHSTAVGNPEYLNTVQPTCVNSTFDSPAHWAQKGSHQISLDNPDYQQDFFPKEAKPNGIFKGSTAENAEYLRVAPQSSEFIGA

What is called IC50 is the concentration needed to halve the response being measured. High values mean lower potency, low ones higher potency. As for `CCc1c(Cl)cccc1Nc1c(-c2ccncc2OCC2CN(C)CCO2)[nH]c2c1C(=O)NCC2` (stereo not drawn) [Example 29, 3-(3-chloro-2-ethylanilino)-2-{3-[(4-methylmorpholin-2-yl)methoxy]pyridin-4-yl}-1,5,6,7-tetrahydro-4H-pyrrolo[3,2-c]pyridin-4-one], in assay [1], the “mutEGFR (D770_N771insSVD) kinase assay IC50” value (“mutEGFR” below) was found to be 0.547 nM. At Bub1, this molecule registered an IC50 of 17200 nM. Further, the GI50 on Ba/F3-EGFR-insSVD cells was 33.6 nM; on Ba/F3-EGFR-WT cells it was 621 nM; in assay [2] it was 0.332 nM; at Ba/F3-EGFR-L858R cells, 0.964 nM; on Ba/F3-EGFR L861Q cells, 16.2 nM.

For `CN1CCO[C@H](COc2cnccc2-c2[nH]c3c(c2Nc2cccc(F)c2CC(F)F)C(=O)NCC3)C1` [Example 41, 3-[2-(2,2-difluoroethyl)-3-fluoroanilino]-2-(3-{[(2S)-4-methylmorpholin-2-yl]methoxy}pyridin-4-yl)-1,5,6,7-tetrahydro-4H-pyrrolo[3,2-c]pyridin-4-one], the “mutEGFR” value in assay [1] is 0.291 nM. The IC50 against Bub1 was above 20000 nM. Further, the GI50 on Ba/F3-EGFR-insSVD cells came to 77.5 nM; at Ba/F3-EGFR-WT cells it was 695 nM.

On to `Cc1c(Cl)cccc1Nc1c(-c2ccncc2OC[C@H]2COCCN2C)[nH]c2c1C(=O)NCC2` [Example 43, 3-(3-chloro-2-methylanilino)-2-(3-{[(3R)-4-methylmorpholin-3-yl]methoxy}pyridin-4-yl)-1,5,6,7-tetrahydro-4H-pyrrolo[3,2-c]pyridin-4-one], for which, in assay [1], the “mutEGFR” value came to 0.225 nM. Moreover, on Bub1, the IC50 is 2410 nM. Besides, the GI50 was 60.5 nM at Ba/F3-EGFR-insSVD cells and 1250 nM on Ba/F3-EGFR-WT cells.

Regarding `CCc1c(Cl)cccc1Nc1c(-c2ccncc2OCC2COCCO2)[nH]c2c1C(=O)NCC2` (stereo not drawn) [Example 52, 3-(3-chloro-2-ethyl-anilino)-2-[3-(1,4-dioxan-2-ylmethoxy)-4-pyridyl]-1,5,6,7-tetrahydropyrrolo[3,2-c]pyridin-4-one], the “mutEGFR” value in assay [1] was 0.226 nM. At Bub1, this molecule yielded an IC50 of 729 nM. In addition, the GI50 on Ba/F3-EGFR-insSVD cells amounted to 13.4 nM; at Ba/F3-EGFR-WT cells, 547 nM.

In the case of `CCc1c(Cl)cccc1Nc1c(-c2ccncc2OC[C@H]2CN(C)CCO2)[nH]c2c1C(=O)NCC2` [Example 55, 3-(3-chloro-2-ethylanilino)-2-(3-{[(2R)-4-methylmorpholin-2-yl]methoxy}pyridin-4-yl)-1,5,6,7-tetrahydro-4H-pyrrolo[3,2-c]pyridin-4-one], the “mutEGFR” value in assay [1] is 0.257 nM. For the same molecule, the IC50 at Bub1 was 7590 nM. Also, the figures for the GI50 at Ba/F3-EGFR-insSVD cells and on Ba/F3-EGFR-WT cells were 124 nM and 1310 nM, respectively.

In the case of `Cc1c(F)cccc1Nc1c(-c2ccncc2OCC2CN(C)CCO2)[nH]c2c1C(=O)NCC2` (stereo not drawn) [Example 62, 3-(3-fluoro-2-methylanilino)-2-(3-{[4-methylmorpholin-2-yl]methoxy}pyridin-4-yl)-1,5,6,7-tetrahydro-4H-pyrrolo[3,2-c]pyridin-4-one], the “mutEGFR” value in assay [1] turned out to be 0.237 nM. Moreover, on Bub1, the IC50 was above 20000 nM. Also, the results for the GI50 at Ba/F3-EGFR-insSVD cells and on Ba/F3-EGFR-WT cells were 26.7 nM and 697 nM, respectively.

Take `CCc1c(F)cccc1Nc1c(-c2ccncc2OCC2COCCO2)[nH]c2c1C(=O)NCC2` (stereo not drawn) [Example 65, 2-(3-{[1,4-dioxan-2-yl]methoxy}pyridin-4-yl)-3-(2-ethyl-3-fluoroanilino)-1,5,6,7-tetrahydro-4H-pyrrolo[3,2-c]pyridin-4-one]: the “mutEGFR” value in assay [1] was determined as 0.136 nM. For the same molecule, the IC50 at Bub1 came to 3580 nM. Besides, the values for the GI50 at Ba/F3-EGFR-insSVD cells and at Ba/F3-EGFR-WT cells were 13.4 nM and 287 nM, respectively.

For `CCc1c(F)cccc1Nc1c(-c2ccncc2OCC2COC(C)(C)CO2)[nH]c2c1C(=O)NCC2` (stereo not drawn) [Example 68, 2-(3-{[5,5-dimethyl-1,4-dioxan-2-yl]methoxy}pyridin-4-yl)-3-(2-ethyl-3-fluoroanilino)-1,5,6,7-tetrahydro-4H-pyrrolo[3,2-c]pyridin-4-one], the “mutEGFR” value in assay [1] was found to be 0.267 nM. At Bub1, this molecule had a 50% inhibitory concentration (IC50) above 20000 nM. Besides, the values for the GI50 on Ba/F3-EGFR-insSVD cells and at Ba/F3-EGFR-WT cells were 37.3 nM and 644 nM, respectively.

On to `COc1c(Cl)cccc1Nc1c(-c2ccncc2OC(C)C2CN(C)CCO2)[nH]c2c1C(=O)NCC2` (stereo not drawn) [Example 71, 3-(3-chloro-2-methoxyanilino)-2-[3-({1-[4-methylmorpholin-2-yl]ethyl}oxy)pyridin-4-yl]-1,5,6,7-tetrahydro-4H-pyrrolo[3,2-c]pyridin-4-one], for which, in assay [1], the “mutEGFR” value was determined as 0.405 nM. The IC50 against Bub1 is above 20000 nM. Also, the GI50 at Ba/F3-EGFR-insSVD cells was 132 nM; on Ba/F3-EGFR-WT cells, 1420 nM.
